Assays:
[1] = tested on: HDAC4, BDNF and GluN2B expression in primary cultured cortical neurons; experiment: Expression of HDAC4, BDNF and GluN2B in primary cultured cortical neurons; type: cell-based, mouse
Experimental: Meanwhile, primary cortical neuron cells were isolated from cerebral cortices of 18-day-old mouse fetuses, incubated in prep media (composition (mM). NaCl 107.5. NaH2PO4 1, NaHCO333.5, glucose 11, HEPS 1%, penicillin-streptomycin 1%) containing 0.25% trypsin and DNase1 for 30 minutes, dissociated into single cells, and seeded. Primary cortical neuron cells were grown in Neurobasal medium supplemented with 1% (v/v) B27, 1% penicillin (100 U/mL), streptomycin ([…]), and 1% Glutamax. Cells were maintained in a humidified atmosphere of 95% air and 5% CO2 at 37° C. Drug efficacy was evaluated after culturing primary cortical neuron cells for 14 days.
The amount of GluN2B reacted with the compound of the present disclosure was measured using Western blot. The fetal cerebral cortex was extracted from mice at 17 days of gestation, dissociated into single cells, cultured for 13 days, and treated with BnH drugs for 24 hours. The drug-treated cells were subjected to protein lysate preparation using RIPA protein lysis buffer containing protease and phosphatase inhibitors. The protein concentration was determined using a BCA protein assay kit (Pierce Biotechnology) using bovine serum albumin as a standard. Equal amounts of protein (20 μg per lane) were separated by electrophoresis on SDS-polyacrylamide gels at 90 V for 2 hours, then transferred from the SDS-polyacrylamide gel to PVDF membrane at 100 V for 1 hour. Then, primary reaction with GluN2B antibody (ab65783, Abcam) was performed at 4° C. for 1 day, washed three times at 10-minutes intervals with 1×PBT, and secondary reaction was performed with anti-mouse antibody (sc-2357, Santa Cruz) for 1 hour, followed by washing three times at 10-minutes intervals with 1×PBT. Western blotting was performed as described above to confirm GluN2B protein expression. Subsequently, each blot was re-probed using anti-β-actin antibody (sc-47778, Santa Cruz). Housekeeping protein β-actin was detected as a normalization control.

[2] = tested on: C57BL/6J mice barrel cortex (layer 4); experiment: Synaptic function test: TC EPSC potency and GABA/AMPA ratio in barrel cortex (layer 4); type: in vivo
Source text: Eight weeks old male C57BL/6J mice were anesthetized with isoflurane during surgery. The mice were then be placed in a stereotaxic frame (RWD Life Science, China). The parietal and the frontal bones were exposed by a sagittal incision of the scalp at the midline from the level of the eyes to the occipital protuberance. A small burr hole was drilled after exposing the skull. The injection cannula was placed at the following coordinates: (Mouse: Bregma −3.30, lateral −1.50, and ventral 0.7 mm). Sterile saline solution (+/−a compound of the present disclosure) was perfused at a constant flow rate of 0.5 μL/h through the injection cannula using a mini-Os pump (DURECT Corporation ALZET Osmotic Pumps, CA). Implantation was done in layer 4 of the barrel cortex ipsilateral. To estimate extent of the diffusion of the injected compound in layer 4 barrel cortex during pump injection, methylene blue was first injected to stain the diffusion area. On average methylene blue diffused to […] away from the injection site (the total area of the barrel cortex region is about 1500 μm). Based on this analysis, the present inventors recorded from barrel cortex area.
2 mg of BnH12001 was dissolved in 800 ul of DMSO and prepared as a stock solution. For oral administration, BnH12001 DMSO stock:PEG400:Saline was mixed in a ratio of 5:55:40 and 200 μl/animal was administered. For the control group, a vehicle in which DMSO:PEG400:Saline was mixed in a 5:55:40 ratio was administered at 200 ul/animal. In the single drug administration test, the compound was administered once a day for about 11 to 12 days at a dose of 1 mg/kg. Dose response test was performed by administering the compound once a day for about 11 to 12 days at doses of 0.03, 0.1, 0.3, 1, 3, and 10 mg/kg. 5 mice were used for the compound administration group and the control group, respectively.
For TC or hippocampus slice preparation. 9 to 10 weeks-old male C57BL/6J mice were anesthetized with isoflurane. Then, the brain was rapidly cooled via transcardial perfusion with ice-cold sucrose-artificial cerebrospinal fluid (aCSF). The brain was removed and placed in ice-cold sucrose aCSF. Paracoronal slices were prepared at an angle of 50° relative to the midline on a ramp at an angle of 10°. Then, slices were incubated in aCSF at 35° C. for 30 minutes to recover. Slices were then incubated in aCSF at room temperature (23 to 25° C.) for 1 to 4 hours before being placed in the recording chamber for experiments. The standard aCSF contains saturated with 95% O2/5% CO2. The brain of the mouse was removed and cut into 400 μm at a 50° angle (mouse at a 55° angle) to attach the cut portion to the vibratome disc to be the bottom. Brain slice was incubated in 35° C. in aCSF solution for 30 minutes, or at RT in aCSF solution for 1 hour.
All electrophysiological experiments were conducted at 27 to 29° C. For electrophysiological experiments, electrodes with […] resistance were used and stimuli were applied to the ventral posteromedial nucleus (VPM) using a concentric bipolar electrode (FHC, Bowdoin, ME). The somatosensory cortex was identified by the presence of barrels under 4× magnification and differential interference contrast (DIC) optics, and by the ability to evoke short and constant latency field excitatory postsynaptic potentials (fEPSPs) by VPM stimulation. Whole-cell voltage-clamp recordings were made from stellate cells (SC) in layer IV of the somatosensory barrel cortex using infrared illumination and differential interference contrast (DIC) optics. The composition of whole cell recording solution is shown as follows:
Whole cell recordings were made using a multiclamp 700A (Molecular devices, Sunnyvale, CA) digitized at 10 kHz and filtered at 2 kHz. […]

HDAC1 = HDAC1 (Homo sapiens, UniProt Q13547); experiment: HDAC catalytic activity, fluorogenic substrate; type: biochemical; conditions: 10-dose, 3-fold serial dilution starting at 100 μM, duplicates
HDAC1, sequence (Q13547 whole entry): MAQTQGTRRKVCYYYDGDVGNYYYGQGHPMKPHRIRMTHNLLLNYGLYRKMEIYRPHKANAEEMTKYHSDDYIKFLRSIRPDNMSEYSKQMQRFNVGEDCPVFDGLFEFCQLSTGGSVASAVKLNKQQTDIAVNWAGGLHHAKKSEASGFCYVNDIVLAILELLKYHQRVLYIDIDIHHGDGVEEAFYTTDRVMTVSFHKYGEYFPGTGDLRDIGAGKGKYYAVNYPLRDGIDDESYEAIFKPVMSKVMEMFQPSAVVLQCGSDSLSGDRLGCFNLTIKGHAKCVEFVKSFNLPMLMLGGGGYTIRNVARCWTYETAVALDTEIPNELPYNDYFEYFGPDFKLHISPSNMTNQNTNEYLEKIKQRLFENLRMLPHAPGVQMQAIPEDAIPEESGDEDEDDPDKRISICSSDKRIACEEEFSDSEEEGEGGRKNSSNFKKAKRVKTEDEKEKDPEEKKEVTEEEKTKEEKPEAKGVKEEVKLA
Experimental: (§1) The compound (racemate) was resuspended in 100 mM DMSO and tested in a 10-dose IC50 with 3-fold serial dilution starting at 100 μM against HDACs 1-9, and 11. As reference compounds, Trichostatin A (TSA) and TMP269 were tested in a 10-dose IC50 with 3-fold serial dilution starting at 10 μM or 1 μM.
(§2) 10 μM Fluorogenic peptide from p53 residues 379-382 (RHKK(Ac)AMC) was used for the substrate for HDAC 1, 2, 3, and 6, 50 μM Fluorogenic HDAC Class2a Substrate (Trifluoroacetyl Lysine) was used for the substrate for HDAC 4, 5, 7, 9, and 11, 100 μM Fluorogenic peptide from p53 residues 379-382 (RHK(Ac)K(Ac)AMC) was used for the substrate for HDAC8.
(§3) IC50 values were calculated using the GraphPad Prism 4 program based on a sigmoidal dose-response equation and the blank (DMSO) value concentration was entered as 1.00E-12 M for curve fitting.

HDAC3 = HDAC3 (Homo sapiens, UniProt O15379); experiment: HDAC catalytic activity, fluorogenic substrate; type: biochemical; conditions: 10-dose, 3-fold serial dilution starting at 100 μM, duplicates
HDAC3, sequence (O15379 whole entry): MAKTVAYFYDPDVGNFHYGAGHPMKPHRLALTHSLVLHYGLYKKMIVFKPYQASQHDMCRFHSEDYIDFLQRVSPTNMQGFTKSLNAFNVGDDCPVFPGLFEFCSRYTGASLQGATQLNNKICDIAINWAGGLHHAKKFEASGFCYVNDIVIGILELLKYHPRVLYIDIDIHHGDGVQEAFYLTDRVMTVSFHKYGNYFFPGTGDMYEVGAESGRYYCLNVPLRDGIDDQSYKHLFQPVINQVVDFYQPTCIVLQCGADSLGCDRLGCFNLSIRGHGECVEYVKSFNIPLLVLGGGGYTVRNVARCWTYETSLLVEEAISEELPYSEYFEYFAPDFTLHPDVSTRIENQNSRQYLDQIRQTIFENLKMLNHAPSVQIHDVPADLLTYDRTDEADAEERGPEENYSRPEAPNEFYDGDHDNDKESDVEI
HDAC3, sequence (Q9Y618 395-489 partner limits assumed): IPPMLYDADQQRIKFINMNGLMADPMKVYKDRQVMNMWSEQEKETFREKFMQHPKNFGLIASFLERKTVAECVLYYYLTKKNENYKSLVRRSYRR
Experimental: as §1, §2, §3

[3] = primary cultured cortical neurons
[4] = Os pump, injected into layer 4 of barrel cortex, 3 μM, 2 weeks, 8-week-old C57BL/6J mice
[5] = oral, 1 mg/kg, 8-week-old C57BL/6J mice
[6] = 1 μM, 24-hour treatment, cultured primary cortical neurons (DIV 14)

Row | Structure (SMILES) | BDNF expression [1, 3] | GluN2B expression [1, 3] | HDAC4 protein expression [1, 3] | Balance of excitation/inhibition (GABA/AMPA ratio) [2, 4] | Excitatory TC synaptic potency (TC potency) [2, 4] | Balance of excitation/inhibition (GABA/AMPA ratio) [2, 5] | TC synaptic potency in the sensory cortex [2, 5] | TC EPSC potency in the layer 4 barrel cortex ([2]; orally-applied, 3 μM) | Inhibitory effect on HDAC1 catalytic activity (HDAC1) | Inhibitory effect on HDAC3 catalytic activity (HDAC3) | BDNF expression [1, 6] | GluN2B expression [1, 6] | Efficacy on TC synaptic potency compared among racemate and enantiomers [2, 5]
1 | CC1CCC(C(=O)O)CN1C(=O)Cc1ccc(F)cc1Cl (racemic) [BnH12001, 1-(2-(2-chloro-4-fluorophenyl)acetyl)-6-methylpiperidine-3-carboxylic acid] | significantly increased | significantly increased | significantly suppressed | maintained | significantly increased | maintaining the balance of excitation/inhibition | increase the TC synaptic potency | significantly augmented | did not show any inhibitory effect | did not show any inhibitory effect | – | – | –
2 | C[C@@H]1CC[C@H](C(=O)O)CN1C(=O)Cc1ccc(F)cc1Cl [BnH12001 enantiomer (3S,6R, 98%<), (3S,6R)-1-(2-(2-chloro-4-fluorophenyl)acetyl)-6-methylpiperidine-3-carboxylic acid] | – | – | – | – | – | maintaining the balance of excitation/inhibition | increase the TC synaptic potency | – | – | – | increased | increased | highest efficacy
